From patent EP1144412B1, “IMMUNOSUPPRESSIVE EFFECTS OF PTERIDINE DERIVATIVES” (4 AZA Bioscience nv, priority 1998, dated 2000)
Read-outs that look alike come from different tables or passages of the source.

How the values were obtained:
[1] = tested on: Highly purified T cells; assay: T cell proliferation induced by anti-CD3 mAb + PMA (BrdU incorporation); type: cell-based, Human; conditions: Homo sapiens, T-cell
Excerpt: (§1) Various models may be used for testing an immunosuppressive effect. In vivo, for example, different transplantation models are available. They are strongly influenced by different immunogenicities, depending on the donor and recipient species used and depending on the nature of the transplanted organ. The survival time of transplanted organs can thus be used to measure the suppression of the immune response. In vitro, there exist also various models. The most used are lymphocyte activation tests. Usually activation is measured via lymphocyte proliferation. Inhibition of proliferation thus always means immunosuppression under the experimental conditions applied. There exist different stimuli for lymphocyte activation: • coculture of lymphocytes of […] (MLR = mixed lymphocyte reaction): lymphocytes expressing different minor and major antigens of the HLA-DR type (= alloantigens) activate each other non-specifically. • CD3 assay: here there is an activation of the T-lymphocytes via an exogenously added antibody (OKT3). This antibody reacts against the CD3 molecule located on the lymphocyte membrane. This molecule has a costimulatory function. […] This molecule is also located on the lymphocyte membrane, and delivers strong costimulatory signals.
(§2) T cells were purified by removing non-T cells. Briefly,monocytes were removed by cold agglutination. The resulting lymphoid cells were further purified by a cell enrichment immunocolumn [Cellect Human T (Biotex, Edmonton, Alberta, Canada)] by a process of negative selection.
(§3) Measurements of T cell proliferations induced by anti-CD3 mAb + PMA or anti-CD28 mAb + PMA
(§4) Highly purified T cells (10^6/ml) were stimulated by immobilized anti-CD3 àr anti-CD28 mAb in the presence of PMA. Anti-CD3 mAb (CLB-CD3; CLB, Amsterdam, The Netherlands) were fixed on the 96-microwell plates by incubating the wells with 50 µl of mAb solution (1/800 dilution in culture medium). Anti-CD28 mAb (CLB-CD28; CLB, Amsterdam, The Netherlands) 50 µl (1/650 dilution in culture medium) was added directly to the wells. Further, 20 µl PMA (Sigma, St. Louis, MO, USA) solution (final concentration: 0.5 ng/ml) was added. Subsequently, 20 µl of immunosuppressants were added by serial dilution in triplicate wells. Finally 100 µl of the T cell suspension (10^6/ml) was added. After 48-hour incubation at 37EC in 5% CO2 20 Φl BrdU (100 ΦM solution) (Cell Proliferation Elisa, Boehringer-Mannheim Belgium) was added to each well. After a further overnight incubation the T cell proliferation was measured using a colorimetric immunoassay for qualification of cell proliferation based on measurements of the incorporation of BrdU during DNAsynthesis. The optical density (OD) was measured by a Behring EL311 plate reader at 450 nm (reference wavelength: 690 nm). The percent suppression of proliferation by drugs was counted using the formula: Per cent inhibition =((OD + drugs) - (OD Cult. Med.))/((OD - drugs) - (OD Cult. Med.))x 100 [formula]

[2] = tested on: Highly purified T cells; assay: T cell proliferation induced by anti-CD28 mAb + PMA (BrdU incorporation); type: cell-based, Human; conditions: Homo sapiens, T-cell
Excerpt: as §1, §2, §3, §4

[3] = tested on: Peripheral blood mononuclear cells (PBMC); assay: Mixed lymphocyte reaction (MLR), [3H]-thymidine incorporation; type: cell-based; conditions: Homo sapiens
Excerpt: as §1
Peripheral blood mononuclear cells (PBMC) were isolated from heparinized peripheral blood by density gradient centrifugation over Lymphoprep (Nycomed, Maorstua, Norway). Allogeneic PBMC or EBV-transformed human B cells [RPMI1788 (ATCC name CCL156)] which strongly express B7-1 and B7-2 were used as stimulator cells after irradiation with 30 Gy. MLR was performed in triplicate wells. After 5 days incubation at 37EC, 1 µCi [^3H]-thymidine was added to each cup. After a further 16 hours incubation, cells were harvested and counted in a β-counter.
The percent suppression of proliferation by drugs was counted using the formula Percent inhibition =((cpm + drugs) - cpm Cult. Med)/((cpm - drugs) - cpm Cult. Med.)x 100 [formula]

[4] = Table II, read-out: IC50 in µM of pteridine derivative ACD3
[5] = untitled structure table, no unit printed there, same values in Table II as IC50 in µM, read-out: aCD3
[6] = Table II, read-out: IC50 in µM of pteridine derivative aCD28
[7] = untitled structure table, no unit printed there, same values in Table II as IC50 in µM, read-out: aCD28
[8] = Table II, read-out: IC50 in µM of pteridine derivative MLR
[9] = untitled structure table, no unit printed there, same values in Table II as IC50 in µM, read-out: MLR

SMILES | IC50 [1, 4] | IC50 [1, 5] | IC50 [2, 6] | IC50 [2, 7] | IC50 [3, 8] | IC50 [3, 9]
Nc1nc(NO)c2nc(-c3ccccc3)cnc2n1 [Compound 13, 2-amino-4-hydroxylamino-6-phenylpteridine] | > 200 µM | > 200 µM | > 200 µM | > 200 µM | 140 µM | 140 µM
CN(C)c1nc(N)nc2ncc(-c3ccccc3)nc12 [Compound 14, 2-amino-4-dimethylamino-6-phenylpteridine] | 15 µM | 15 µM | 15 µM | 15 µM | 5 µM | 5 µM
Cc1ccc(-c2cnc3nc(N)nc(N(C)C)c3n2)cc1 [Compound 15, 2-amino-4-dimethylamino-6-(4-tolyl)pteridine] | 4.5 µM | 4.5 µM | 3.9 µM | 3.9 µM | 3.6 µM | 3.6 µM
COc1ccc(-c2cnc3nc(N)nc(N(C)C)c3n2)cc1 [Compound 16, 2-amino-4-dimethylamino-6-(4-methoxyphenyl)pteridine] | 7.5 µM | 7.5 µM | 7.5 µM | 7.5 µM | 12 µM | 12 µM
COCCOCc1cnc2nc(N)nc(N)c2n1 [Compound 17, 2,4-diamino-6-methoxyethoxymethyl pteridine] | 180 µM | 180 µM | 18 µM | 18 µM | > 200 µM | > 200 µM
Nc1nc(N)c2nc(CNCc3ccccc3)cnc2n1 [Compound 19, 2,4-diamino-6-benzylaminomethyl pteridine] | 123 µM | 123 µM | 118 µM | 118 µM | 50 µM | 50 µM
CN(C)Cc1cnc2nc(N)nc(N)c2n1 [Compound 20, 2,4-diamino-6-dimethyl aminomethyl pteridine] | 170 µM | 170 µM | 100 µM | 100 µM | > 200 µM | > 200 µM
CCN(CC)c1nc(N)nc2ncc(-c3ccccc3)nc12 [Compound 21, 2-amino-4-diethylamino-6-phenylpteridine] | 80 µM | 80 µM | 20 µM | 20 µM | 15 µM | 15 µM
CCN(CC)c1nc(N)nc2ncc(-c3ccc(Cl)cc3)nc12 [Compound 22, 2-amino-4-diethylamino-6-(4-chlorophenyl) pteridine] | 50 µM | 50 µM | 20 µM | 20 µM | 17 µM | 17 µM
CCN(CC)c1nc(N)nc2ncc(-c3ccc(OC)cc3)nc12 [Compound 23, 2-amino-4-diethylamino-6-(4-methoxyphenyl) pteridine] | 20 µM | 20 µM | 20 µM | 20 µM | 12 µM | 12 µM
CCN(CC)c1nc(N)nc2ncc(-c3ccc(OC)c(OC)c3)nc12 [Compound 24, 2-amino-4-diethylamino-6-(3,4-dimethoxyphenyl) pteridine] | 0.5 µM | 0.5 µM | 0.1 µM | 0.1 µM | 0.08 µM | 0.08 µM
Nc1nc(N(Cc2ccccc2)Cc2ccccc2)c2nc(-c3ccccc3)cnc2n1 [Compound 25, 2-amino-4-dibenzylamino-6-phenyl pteridine] | 25 µM | 25 µM | 25 µM | 25 µM | 75 µM | 75 µM
Nc1nc(N(Cc2ccccc2)Cc2ccccc2)c2nc(-c3ccc(Cl)cc3)cnc2n1 [Compound 26, 2-amino-dibenzylamino-6-(4-chlorophenyl) pteridine] | 75 µM | 75 µM | 20 µM | 20 µM | 100 µM | 100 µM
COc1ccc(-c2cnc3nc(N)nc(N(Cc4ccccc4)Cc4ccccc4)c3n2)cc1 [Compound 27, 2-amino-4-dibenzylamino-6-(4-methoxyphenyl) pteridine] | 20 µM | 20 µM | 15 µM | 15 µM | 50 µM | 50 µM
COc1ccc(-c2cnc3nc(N)nc(N(Cc4ccccc4)Cc4ccccc4)c3n2)cc1OC [Compound 28, 2-amino-4-dibenzylamino-6-(3,4-dimethoxyphenyl) pteridine] | 4.3 µM | 4.3 µM | 3.2 µM | 3.2 µM | 3.5 µM | 3.5 µM
CCCN(CCC)c1nc(N)nc2ncc(-c3ccccc3)nc12 [Compound 29, 2-amino-4-dipropylamino-6-phenylpteridine] | 25 µM |  | 25 µM | 25 µM | 15 µM | 15 µM
CCCN(CCC)c1nc(N)nc2ncc(-c3ccc(Cl)cc3)nc12 [Compound 30, 2-amino-4-dipropylamino-6-(4-chlorophenyl)pteridine] | 9.7 µM | 9.7 µM | 6.7 µM | 6.7 µM | 13 µM | 13 µM
CCCN(CCC)c1nc(N)nc2ncc(-c3ccc(OC)cc3)nc12 [Compound 31, 2-amino-4-dipropylamino-6-(4-methoxyphenyl)pteridine] | 5.7 µM | 5.7 µM | 2.8 µM | 2.8 µM | 8.5 µM | 8.5 µM
CCCN(CCC)c1nc(N)nc2ncc(-c3ccc(OC)c(OC)c3)nc12 [Compound 32, 2-amino-4-dipropylamino-6-(3,4-dimethoxyphenyl)pteridine] | 0.8 µM | 0.8 µM | 0.7 µM | 0.7 µM | 2.2 µM | 2.2 µM
